US12329158B2, “Large-scale methods of uniformly coating packaging surfaces with a volatile antimicrobial to preserve food freshness” (AGROFRESH INC., priority 2013, dated 2025)

Columns and labels:
Botrytis cinerea [1] = assay: Gray mold on strawberry, volatile assay (Example 23); type: in vivo
Procedure: Eight strawberries (per repetition, in triplicate) are placed in an industry standard 1-lb PET clamshell with the stem-end facing down.
Compound A is mixed acetone and 250 μL of the mixture is pipetted into a small glass tube. […] After incubation, fruits are evaluated for disease (scale 0 to 4, with ≤1 indicating marketable fruit and 4 indicating ≥50% of fruit surface covered by pathogen) up to 4 days at 21° C.

Botrytis cinerea [2] = assay: Volatilization from treated clamshells onto inoculated agar plates (Example 2); type: cell-based
Procedure: An in vitro assay was used to evaluate the ability of Compound A to volatilize from a clamshell to control fungal pathogenic infection when applied to the clamshell by various application techniques. Multiple empty 1-lb PET clamshells (ProducePackaging.com, #036QT) were placed inside triplicate air-tight 36 L chamber (Fisher Scientific, Catalogue #08-642-23C) fitted with a bulkhead septum port (Swagelok, SS-401-61, Solon, OH).
Compound A headspace was permitted to equilibrate overnight at 21° C.
After spraying or painting, the clamshell was then permitted to dry for 5 minutes. After coating the clamshells with Compound A using various applications (i.e., sublimation, spraying, or painting), 10-cm Petri plates containing half strength Potato Dextrose Agar were inoculated with 1 μL of 1×10^5 spores/ml Botrytis cinerea spore suspension. The inoculated petri plates were then sealed with a breathable film (AeraSeal; P/N: B-100, Excel Scientific, Victorville, CA), and placed inside the treated clamshell.
(Series I). After incubation, plates were removed and cultures were evaluated for percent growth relative to a control based on measurement of fungal colony diameter (mm).
Meanwhile, freshly prepared inoculated plates were placed inside the clamshell for an additional three (3) days of incubation (Series 2). This process, where freshly prepared inoculated plates were placed inside the clamshell, was repeated twice more, to produce a 12 full day evaluation of 4 series of 3 days each.

Botrytis cinerea [3] = assay: Dose response, sprayed clamshells; strawberries (Example 4); type: in vivo; settings: spraying
Procedure: Five milligrams of Compound A was dissolved in 1 ml of ethanol prior to being uniformly administered to the interior of the clamshell by painting or spraying, and then dried for 5 minutes. After coating the clamshells with Compound A using various application techniques (i.e., sublimation, spraying, or painting), eight ethanol-washed strawberries were placed in the clamshell with stem end facing downwards. Each strawberry fruit was wounded using a T15 screwdriver tip to a uniform depth of eight mm (8 mm). […] Uninoculated strawberries were removed from their commercial package, and directly transferred into treated clamshells without any washing or inoculation steps.
Treated clamshells lids were closed, and then placed at 1° C. for an initial time period of 5 days. Clamshells were then removed from low temperature, and held for a second time period of 6 days at room temperature where the point of inoculation on the strawberry fruits was assessed for indication of disease incidence reported as a percentage (%). Severity of disease incidence was also reported.
This in vivo assay was used to evaluate the ability of different concentrations of Compound A to volatilize from clamshell in order to control or inhibit fruit infection by pathogenic microorganism, Botrytis cinerea. This experiment was conducted exactly as described in Example 1, with a few exceptions. After equilibrating the clamshell overnight at 21° C., Compound A was administered to the clamshells by spraying only. Compound A was sprayed onto the surface of the clamshells at a final treatment rate of 5 mg/clamshell or 1 mg/clamshell. The clamshells were then permitted to dry for 5 minutes. Strawberries were inoculated with Botrytis cinerea, placed within the clamshells for the initial time period (i.e., 5 days), and assessed for disease incidence and severity over the second time period (i.e., 6 days) as described in Example 1.

[4] = Inoculated Fruit, 1 mg/clamshell, Day 0
[5] = Inoculated Fruit, 1 mg/clamshell, Day 1
[6] = Inoculated Fruit, 1 mg/clamshell, Day 2
[7] = Inoculated Fruit, 1 mg/clamshell, Day 3
[8] = Inoculated Fruit, 1 mg/clamshell, Day 4
[9] = Inoculated Fruit, 1 mg/clamshell, Day 5
[10] = Inoculated Fruit, 1 mg/clamshell, Day 6
[11] = Inoculated Fruit, 5 mg/clamshell, Day 0
[12] = Inoculated Fruit, 5 mg/clamshell, Day 1
[13] = Inoculated Fruit, 5 mg/clamshell, Day 2
[14] = Inoculated Fruit, 5 mg/clamshell, Day 3
[15] = Inoculated Fruit, 5 mg/clamshell, Day 4
[16] = Inoculated Fruit, 5 mg/clamshell, Day 5
[17] = Inoculated Fruit, 5 mg/clamshell, Day 6
[18] = Uninoculated Fruit, 5 mg/clamshell, Day 0
[19] = Uninoculated Fruit, 5 mg/clamshell, Day 1
[20] = Uninoculated Fruit, 5 mg/clamshell, Day 2
[21] = Uninoculated Fruit, 5 mg/clamshell, Day 6

Question: Which results are given for `OB1OCc2cc(F)ccc21` [Compound A, 5-fluoro-1,3-dihydro-1-hydroxy-2,1-benzoxaborole]?
Answer: Disease Severity (0 to 4) (Botrytis cinerea [1]; 0.02 mg/L, Day 0): 0.0; Disease Severity (0 to 4) (Botrytis cinerea [1]; 0.02 mg/L, Day 1): 0.0; Disease Severity (0 to 4) (Botrytis cinerea [1]; 0.02 mg/L, Day 2): 0.1; Disease Severity (0 to 4) (Botrytis cinerea [1]; 0.02 mg/L, Day 3): 0.2; Disease Severity (0 to 4) (Botrytis cinerea [1]; 0.02 mg/L, Day 4): 0.7; Disease Severity (0 to 4) (Botrytis cinerea [1]; 0.1 mg/L, Day 0): 0.0; Disease Severity (0 to 4) (Botrytis cinerea [1]; 0.1 mg/L, Day 1): 0.0; Disease Severity (0 to 4) (Botrytis cinerea [1]; 0.1 mg/L, Day 2): 0.0; Disease Severity (0 to 4) (Botrytis cinerea [1]; 0.1 mg/L, Day 3): 0.0; Disease Severity (0 to 4) (Botrytis cinerea [1]; 0.1 mg/L, Day 4): 0.0; Disease Severity (0 to 4) (Botrytis cinerea [1]; 0.5 mg/L, Day 0): 0.0; Disease Severity (0 to 4) (Botrytis cinerea [1]; 0.5 mg/L, Day 1): 0.0; Disease Severity (0 to 4) (Botrytis cinerea [1]; 0.5 mg/L, Day 2): 0.0; Disease Severity (0 to 4) (Botrytis cinerea [1]; 0.5 mg/L, Day 3): 0.0; Disease Severity (0 to 4) (Botrytis cinerea [1]; 0.5 mg/L, Day 4): 0.0; Disease Severity (0 to 4) (Botrytis cinerea [1]; 2.5 mg/L, Day 0): 0.0; Disease Severity (0 to 4) (Botrytis cinerea [1]; 2.5 mg/L, Day 1): 0.0; Disease Severity (0 to 4) (Botrytis cinerea [1]; 2.5 mg/L, Day 2): 0.0; Disease Severity (0 to 4) (Botrytis cinerea [1]; 2.5 mg/L, Day 3): 0.0; Disease Severity (0 to 4) (Botrytis cinerea [1]; 2.5 mg/L, Day 4): 0.0; Mycelial Growth Inhibition (%) (Botrytis cinerea [2]; Paint, 0.2 mg/clamshell, Series 1 (0 to 3 days)): 3.4%; Mycelial Growth Inhibition (%) (Botrytis cinerea [2]; Paint, 1 mg/clamshell, Series 1 (0 to 3 days)): 100.0%; Mycelial Growth Inhibition (%) (Botrytis cinerea [2]; Paint, 1 mg/clamshell, Series 2 (3 to 6 days)): 18.8%; Mycelial Growth Inhibition (%) (Botrytis cinerea [2]; Paint, 5 mg/clamshell, Series 1 (0 to 3 days)): 100.0%; Mycelial Growth Inhibition (%) (Botrytis cinerea [2]; Paint, 5 mg/clamshell, Series 2 (3 to 6 days)): 100.0%; Mycelial Growth Inhibition (%) (Botrytis cinerea [2]; Paint, 5 mg/clamshell, Series 3 (6 to 9 days)): 57.5%; Mycelial Growth Inhibition (%) (Botrytis cinerea [2]; Paint, 5 mg/clamshell, Series 4 (9 to 12 days)): 44.7%; Mycelial Growth Inhibition (%) (Botrytis cinerea [2]; Spray, 0.2 mg/clamshell, Series 1 (0 to 3 days)): 81.2%; Mycelial Growth Inhibition (%) (Botrytis cinerea [2]; Spray, 1 mg/clamshell, Series 1 (0 to 3 days)): 100.0%; Mycelial Growth Inhibition (%) (Botrytis cinerea [2]; Spray, 1 mg/clamshell, Series 2 (3 to 6 days)): 18.6%; Mycelial Growth Inhibition (%) (Botrytis cinerea [2]; Spray, 1 mg/clamshell, Series 3 (6 to 9 days)): 0.0%; Mycelial Growth Inhibition (%) (Botrytis cinerea [2]; Spray, 5 mg/clamshell, Series 1 (0 to 3 days)): 100.0%; Mycelial Growth Inhibition (%) (Botrytis cinerea [2]; Spray, 5 mg/clamshell, Series 2 (3 to 6 days)): 100.0%; Mycelial Growth Inhibition (%) (Botrytis cinerea [2]; Spray, 5 mg/clamshell, Series 3 (6 to 9 days)): 61.2%; Mycelial Growth Inhibition (%) (Botrytis cinerea [2]; Spray, 5 mg/clamshell, Series 4 (9 to 12 days)): 64.9%; Mycelial Growth Inhibition (%) (Botrytis cinerea [2]; Sublimation, 0.2 mg/clamshell, Series 1 (0 to 3 days)): 90.9%; Mycelial Growth Inhibition (%) (Botrytis cinerea [2]; Sublimation, 0.2 mg/clamshell, Series 3 (6 to 9 days)): 0.0%; Mycelial Growth Inhibition (%) (Botrytis cinerea [2]; Sublimation, 1 mg/clamshell, Series 1 (0 to 3 days)): 90.1%; Mycelial Growth Inhibition (%) (Botrytis cinerea [2]; Sublimation, 5 mg/clamshell, Series 1 (0 to 3 days)): 100.0%; Mycelial Growth Inhibition (%) (Botrytis cinerea [2]; Sublimation, 5 mg/clamshell, Series 2 (3 to 6 days)): 100.0%; Mycelial Growth Inhibition (%) (Botrytis cinerea [2]; Sublimation, 5 mg/clamshell, Series 3 (6 to 9 days)): 83.1%; Mycelial Growth Inhibition (%) (Botrytis cinerea [2]; Sublimation, 5 mg/clamshell, Series 4 (9 to 12 days)): 84.4%; Gray Mold Incidence (%) (Botrytis cinerea [3]; [4]): 0.0%; Gray Mold Severity (0-4) (Botrytis cinerea [3]; [4]): 0.0; Gray Mold Incidence (%) (Botrytis cinerea [3]; [5]): 0.0%; Gray Mold Severity (0-4) (Botrytis cinerea [3]; [5]): 0.0; Gray Mold Incidence (%) (Botrytis cinerea [3]; [6]): 1.3%; Gray Mold Severity (0-4) (Botrytis cinerea [3]; [6]): 0.0; Gray Mold Incidence (%) (Botrytis cinerea [3]; [7]): 3.8%; Gray Mold Severity (0-4) (Botrytis cinerea [3]; [7]): 0.1; Gray Mold Incidence (%) (Botrytis cinerea [3]; [8]): 11.3%; Gray Mold Severity (0-4) (Botrytis cinerea [3]; [8]): 0.2; Gray Mold Incidence (%) (Botrytis cinerea [3]; [9]): 36.3%; Gray Mold Severity (0-4) (Botrytis cinerea [3]; [9]): 0.6; Gray Mold Incidence (%) (Botrytis cinerea [3]; [10]): 52.5%; Gray Mold Severity (0-4) (Botrytis cinerea [3]; [10]): 1.5; Gray Mold Incidence (%) (Botrytis cinerea [3]; [11]): 0.0%; Gray Mold Severity (0-4) (Botrytis cinerea [3]; [11]): 0.0; Gray Mold Incidence (%) (Botrytis cinerea [3]; [12]): 0.0%; Gray Mold Severity (0-4) (Botrytis cinerea [3]; [12]): 0.0; Gray Mold Incidence (%) (Botrytis cinerea [3]; [13]): 0.0%; Gray Mold Severity (0-4) (Botrytis cinerea [3]; [13]): 0.0; Gray Mold Incidence (%) (Botrytis cinerea [3]; [14]): 0.0%; Gray Mold Severity (0-4) (Botrytis cinerea [3]; [14]): 0.0; Gray Mold Incidence (%) (Botrytis cinerea [3]; [15]): 0.0%; Gray Mold Severity (0-4) (Botrytis cinerea [3]; [15]): 0.0; Gray Mold Incidence (%) (Botrytis cinerea [3]; [16]): 0.0%; Gray Mold Severity (0-4) (Botrytis cinerea [3]; [16]): 0.0; Gray Mold Incidence (%) (Botrytis cinerea [3]; [17]): 0.0%; Gray Mold Severity (0-4) (Botrytis cinerea [3]; [17]): 0.0; Gray Mold Incidence (%) (Botrytis cinerea [3]; Uninoculated Fruit, 1 mg/clamshell, Day 0): 0.0%; Gray Mold Incidence (%) (Botrytis cinerea [3]; Uninoculated Fruit, 1 mg/clamshell, Day 1): 1.9%; Gray Mold Incidence (%) (Botrytis cinerea [3]; Uninoculated Fruit, 1 mg/clamshell, Day 2): 21.6%; Gray Mold Incidence (%) (Botrytis cinerea [3]; Uninoculated Fruit, 1 mg/clamshell, Day 3): 89.5%; Gray Mold Incidence (%) (Botrytis cinerea [3]; Uninoculated Fruit, 1 mg/clamshell, Day 4): 100.0%; Gray Mold Incidence (%) (Botrytis cinerea [3]; Uninoculated Fruit, 1 mg/clamshell, Day 5): 100.0%; Gray Mold Incidence (%) (Botrytis cinerea [3]; Uninoculated Fruit, 1 mg/clamshell, Day 6): 100.0%; Gray Mold Incidence (%) (Botrytis cinerea [3]; [18]): 0.5%; Gray Mold Severity (0-4) (Botrytis cinerea [3]; [18]): 0.1; Gray Mold Incidence (%) (Botrytis cinerea [3]; [19]): 0.5%; Gray Mold Severity (0-4) (Botrytis cinerea [3]; [19]): 0.1; Gray Mold Incidence (%) (Botrytis cinerea [3]; [20]): 0.9%; Gray Mold Severity (0-4) (Botrytis cinerea [3]; [20]): 0.3; Gray Mold Incidence (%) (Botrytis cinerea [3]; Uninoculated Fruit, 5 mg/clamshell, Day 3): 3.3%; Gray Mold Incidence (%) (Botrytis cinerea [3]; Uninoculated Fruit, 5 mg/clamshell, Day 4): 16.2%; Gray Mold Incidence (%) (Botrytis cinerea [3]; Uninoculated Fruit, 5 mg/clamshell, Day 5): 31.9%; Gray Mold Incidence (%) (Botrytis cinerea [3]; [21]): 78.5%; Gray Mold Severity (0-4) (Botrytis cinerea [3]; [21]): 3.5
